Patent US20250018047A1, “METHODS AND COMPOSITIONS FOR TARGETED PROTEIN DEGRADATION” (Ranok Therapeutics (Hangzhou) Co. Ltd., priority 2021, published 2025)
Structures can show the parent of a compound that is named as a salt.

Experiments:
KRAS(G12D)/SOS1 = target: T1, KRAS(G12D)/SOS1 (Homo sapiens, UniProt P01116, G12D); test: KRAS(G12D)/SOS1 homogeneous time-resolved fluorescence (HTRF) assay; type: binding; conditions: absence of GTP, 4° C. for 3 hr
T1 construct: purchased Cisbio 63ADK000CB16PEG
Protocol: The test compound was mixed and incubated with reaction components, incubated in a sealed plate at 4° C. for 3 hr and fluorescence was measured using a PerkinElmer Envision plate reader.

[1] = target: BA/F3-KRAS(G12D) murine pro-B cell line stably expressing KRAS(G12D) (Homo sapiens, UniProt P01116, G12D, cells depend on it); test: CellTiter-Glo cancer cell line proliferation assay, BA/F3-KRAS(G12D); type: cell-based; conditions: 24 hr, read-out: BAF3 at 24 hrs, IC50
Protocol: The following cancer cell lines were employed: AsPC-1 human pancreatic adenocarcinoma (ATCC, #CRL-1682); A-427 human lung carcinoma (ATCC, #HTB-53); BA/F3-KRAS(G12D) murine pro-B cell line stably expressing KRAS(G12D) (Precedo, Hefei, China). Cell lines were cultured according to ATCC and recommendations. BA/F3-KRAS(G12D) cells were cultured in RPMI 1640 media with 10% fetal calf serum, 100 units/mL penicillin and […] streptomycin, and 1% glutamine.
(§1) CellTiter-Glo® Reagent Cancer Cell Line Proliferation Assays
(§2) Cells were plated in 96-well tissue culture plates at 4,000 cells/well and incubated at 37° C./5% CO2 for 24 hr in 100 μl of media. 3-fold serial dilutions of each test compound were prepared ranging from 20 μM to 1.02 nM. Cells were then treated with test compounds at various concentrations with a final concentration of 0.5% DMSO/well, and then incubated at 37° C./5% CO2 for 24 hr. 100 μl of CellTiter-Glo® Reagent (Promega Corporation, Madison, WI) was added to each well and processed according manufacturer's protocol. Results were analyzed and IC50-values were calculated in GraphPad 7 software.

[2] = system: A-427 human lung carcinoma; test: CellTiter-Glo cancer cell line proliferation assay, A-427; type: cell-based; conditions: Homo sapiens, A-427, 24 hr, read-out: A427 at 24 hrs, IC50
Protocol: (§3) Cell lines were cultured according to ATCC and recommendations.
as §1
as §2, with “3-fold serial dilutions of each test compound were prepared ranging from 20 μM to 1.02 nM.” left out

[3] = system: AsPC-1 human pancreatic adenocarcinoma; test: CellTiter-Glo cancer cell line proliferation assay, AsPC-1; type: cell-based; conditions: Homo sapiens, ASPC1, 24 hr
Protocol: as §3, §1
as §2, with “3-fold serial dilutions of each test compound were prepared ranging from 20 μM to 1.02 nM.” left out

KRAS(G12D) = target: T2, KRAS(G12D) (Homo sapiens, UniProt P01116, G12D); test: SW1990 WB assay (degradation DC50, Dmax); type: cell-based; conditions: Western blot, SW1990 cells
T2 construct: endogenous in cells; host or cells: SW1990
T2 sequence (P01116 1-188 isoform P01116-2 G12D): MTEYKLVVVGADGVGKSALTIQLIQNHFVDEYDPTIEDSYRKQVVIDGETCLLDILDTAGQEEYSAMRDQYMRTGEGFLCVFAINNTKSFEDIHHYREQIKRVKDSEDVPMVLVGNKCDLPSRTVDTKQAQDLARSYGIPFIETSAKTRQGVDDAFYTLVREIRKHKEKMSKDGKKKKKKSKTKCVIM

T1 sequence (P01116 1-188 isoform P01116-2 G12D): as above
Chain of BA/F3-KRAS(G12D) murine pro-B cell line stably expressing KRAS(G12D) (P01116 whole entry G12D): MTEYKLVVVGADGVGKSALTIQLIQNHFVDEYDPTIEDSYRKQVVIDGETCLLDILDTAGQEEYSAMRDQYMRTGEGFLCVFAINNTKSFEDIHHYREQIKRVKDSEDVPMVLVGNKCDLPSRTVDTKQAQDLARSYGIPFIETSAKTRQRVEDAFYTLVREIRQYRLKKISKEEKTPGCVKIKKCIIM

`Cc1ncsc1-c1ccc(CNC(=O)C2CC(O)CN2C(=O)C(NC(=O)C2CCN([C@H]3C[C@@H](COc4nc(N5CC6CCC(C5)N6)c5cnc(-c6cccc7cccc(Cl)c67)cc5n4)N(C)C3)CC2)C(C)(C)C)cc1` (stereo in doubt) [Compound 20, 1-[(3S,5S)-5-({[7-(8-chloronaphthalen-1-yl)-4-{3,8-diazabicyclo[3.2.1]octan-3-yl}pyrido[4,3-d]pyrimidin-2-yl]oxy}methyl)-1-methylpyrrolidin-3-yl]-N-[(2S)-1-[(2 S,4R)-4-hydroxy-2-({[4-(4-methyl-1,3-thiazol-5-yl)phenyl]methyl}carbamoyl)pyrrolidin-1-yl]-3,3-dimethyl-1-oxobutan-2-yl]piperidine-4-carboxamide] was tested, and the IC50 (KRAS(G12D)/SOS1) was > 1000 nM and the GI50 [1] was > 1000 nM.
In the case of `C#Cc1cccc2cccc(-c3ncc4c(N5CC6CCC(C5)N6)nc(OCCN5CCN(CC6CCN(c7ccc8c(c7)C(=O)N(C7CCC(=O)NC7=O)C8=O)CC6)CC5)nc4c3F)c12` (stereo not shown) [Compound 1, 5-(4-((4-(2-((4-(3,8-diazabicyclo[3.2.1]octan-3-yl)-7-(8-ethynylnaphthalen-1-yl)-8-fluoropyrido[4,3-d]pyrimidin-2-yl)oxy)ethyl)piperazin-1-yl)methyl)piperidin-1-yl)-2-(2,6-dioxopiperidin-3-yl)isoindoline-1,3-dione hydrochloride], the IC50 [2] is reported as > 1000 nM, the IC50 (KRAS(G12D)/SOS1) is reported as 100 to 1000 nM and the GI50 [1] is reported as > 1000 nM.
With `C#Cc1cccc2cccc(-c3ncc4c(N5CC6CCC(C5)N6)nc(OCCN5CCN(Cc6ccc7c(c6)C(=O)N(C6CCC(=O)NC6=O)C7=O)CC5)nc4c3F)c12` (stereo not shown) [Compound 2, 5-((4-(2-((4-(3,8-diazabicyclo[3.2.1]octan-3-yl)-7-(8-ethynylnaphthalen-1-yl)-8-fluoropyrido[4,3-d]pyrimidin-2-yl)oxy)ethyl)piperazin-1-yl)methyl)-2-(2,6-dioxopiperidin-3-yl)isoindoline-1,3-dione hydrochloride] the IC50 [2] was > 1000 nM, the IC50 (KRAS(G12D)/SOS1) was < 100 nM and the IC50 [3] was > 1000 nM. For the same compound, the GI50 [1] was > 1000 nM.
`C#Cc1cccc2cccc(-c3ncc4c(N5CC6CCC(C5)N6)nc(OCCC5CCN(CC6CCN(c7cccc8c7C(=O)N(C7CCC(=O)NC7=O)C8=O)CC6)CC5)nc4c3F)c12` (stereo not shown) [Compound 3, 4-(4-((4-(2-((4-(3,8-diazabicyclo[3.2.1]octan-3-yl)-7-(8-ethynylnaphthalen-1-yl)-8-fluoropyrido[4,3-d]pyrimidin-2-yl)oxy)ethyl)piperidin-1-yl)methyl)piperidin-1-yl)-2-(2,6-dioxopiperidin-3-yl)isoindoline-1,3-dione hydrochloride] was tested, and the IC50 [2] was > 1000 nM, the IC50 (KRAS(G12D)/SOS1) was < 100 nM and the GI50 [1] was 100 to 1000 nM.
`C#Cc1cccc2cccc(-c3ncc4c(N5CC6CCC(C5)N6)nc(OCCN5CCN(C(=O)C6CCN(c7ccc8c(c7)C(=O)N(C7CCC(=O)NC7=O)C8=O)CC6)CC5)nc4c3F)c12` (stereo not shown) [Compound 4, 5-(4-(4-(2-((4-(3,8-diazabicyclo[3.2.1]octan-3-yl)-7-(8-ethynylnaphthalen-1-yl)-8-fluoropyrido[4,3-d]pyrimidin-2-yl)oxy)ethyl)piperazine-1-carbonyl)piperidin-1-yl)-2-(2,6-dioxopiperidin-3-yl)isoindoline-1,3-dione formate] was tested, and the IC50 [2] was > 1000 nM, the IC50 (KRAS(G12D)/SOS1) was > 1000 nM and the GI50 [1] was > 1000 nM.
`C#Cc1cccc2cccc(-c3ncc4c(N5CC6CCC(C5)N6)nc(OC[C@@H]5CC[C@H](CN6CCN(Cc7ccc8c(c7)C(=O)N(C7CCC(=O)NC7=O)C8=O)CC6)N5C)nc4c3F)c12` (stereo partly drawn) [Compound 15, 5-((4-(((2R,5S)-5-(((4-(3,8-diazabicyclo[3.2.1]octan-3-yl)-7-(8-ethynylnaphthalen-1-yl)-8-fluoropyrido[4,3-d]pyrimidin-2-yl)oxy)methyl)-1-methylpyrrolidin-2-yl)methyl)piperazin-1-yl)methyl)-2-(2,6-dioxopiperidin-3-yl)isoindoline-1,3-dione formate] was tested, and the IC50 [2] was > 1000 nM, the IC50 (KRAS(G12D)/SOS1) was < 100 nM and the GI50 [1] was > 1000 nM.
With `C#Cc1cccc2cccc(-c3ncc4c(N5CC6CCC(C5)N6)nc(OC[C@@H]5CC[C@H](CN6CCN(C(=O)C7CCN(c8ccc9c(c8)C(=O)N(C8CCC(=O)NC8=O)C9=O)CC7)CC6)N5C)nc4c3F)c12` (stereo partly drawn) [Compound 16, 5-(4-(4-(((2R,5S)-5-(((4-(3,8-diazabicyclo[3.2.1]octan-3-yl)-7-(8-ethynylnaphthalen-1-yl)-8-fluoropyrido[4,3-d]pyrimidin-2-yl)oxy)methyl)-1-methylpyrrolidin-2-yl)methyl)piperazine-1-carbonyl)piperidin-1-yl)-2-(2,6-dioxopiperidin-3-yl)isoindoline-1,3-dione hydrochloride] the IC50 [2] was > 1000 nM, the IC50 (KRAS(G12D)/SOS1) was < 100 nM and the GI50 [1] was > 1000 nM.
For `C#Cc1cccc2cc(O)cc(-c3nc(OC)c4c(N5CC6CCC(C5)N6)nc(OCC5(CN6CCN(CC7CCN(c8ccc9c(c8)CN(C8CCC(=O)NC8=O)C9=O)CC7)CC6)CC5)nc4c3F)c12` (stereo not shown) [Compound 78], the IC50 [2] was < 100 nM, the DC50 (KRAS(G12D)) was < 100 nM and the Dmax (KRAS(G12D)) was > 50%. The IC50 (KRAS(G12D)/SOS1) was < 100 nM and the IC50 [3] was < 100 nM.
In the case of `C#Cc1cccc2cc(O)cc(-c3ncc4c(N5CC6CCC(C5)N6)nc(OCC5(CN6CCN(CC7CCN(c8ccc9c(c8)CN(C)C9=O)CC7)CC6)CC5)nc4c3F)c12` [Compound 81], the IC50 [2] is reported as 100 to 1000 nM, the DC50 (KRAS(G12D)) is reported as > 1000 nM and the Dmax (KRAS(G12D)) is reported as 10 to 50%. For the same compound, the IC50 (KRAS(G12D)/SOS1) was < 100 nM and the IC50 [3] was 100 to 1000 nM.
